Assay: osmotic coefficient (dimensionless); mn = molality of the nth substance listed, in mol/kg
Settings: 101 kPa, Liquid

O=S(=O)([O-])[O-].[Ca+2] [calcium sulfate] + O
Settings | osmotic coefficient
273.12 K, m1 = 0.00937 | 0.732
273.12 K, m1 = 0.00952 | 0.731
273.12 K, m1 = 0.01046 | 0.723
273.12 K, m1 = 0.01092 | 0.719
273.12 K, m1 = 0.011 | 0.719
273.13 K, m1 = 0.00526 | 0.78
273.13 K, m1 = 0.0056 | 0.774
273.13 K, m1 = 0.00625 | 0.766
273.13 K, m1 = 0.0067 | 0.76
273.13 K, m1 = 0.00714 | 0.755
273.13 K, m1 = 0.00742 | 0.751
273.13 K, m1 = 0.00782 | 0.747
273.13 K, m1 = 0.00915 | 0.734
273.14 K, m1 = 0.00418 | 0.798
273.14 K, m1 = 0.00487 | 0.786
